# Test results taken from BindingDB's records for doi:10.1021/bi401014k (Texas A&M University, 2013).
# Legend:
# Experiment in all cases: ANS Fluorescence Displacement Assay
# [1] = molecular target: T1, Fatty acid-binding protein, liver (Homo sapiens, UniProt P07148)
# T1 sequence (P07148 whole entry): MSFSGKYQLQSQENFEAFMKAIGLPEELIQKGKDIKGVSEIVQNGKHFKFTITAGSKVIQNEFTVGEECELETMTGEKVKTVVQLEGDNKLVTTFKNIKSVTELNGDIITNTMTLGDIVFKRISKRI
# Description: (§1) A solution of the L-FABP (500 nM) and ANS (35 µM) was titrated with phytanic acid (0-6.4 µM) or fenofibrate (0-6 µM for the rat L-FABP and 0-4 µM for the human L-FABP) or fenofibric acid (0-300 µM for the rat L-FABP and 0-48 µM for the human L-FABP).
# [2] = molecular target: T2, Fatty acid-binding protein, liver (Rattus norvegicus, UniProt P02692)
# T2 sequence (P02692 whole entry): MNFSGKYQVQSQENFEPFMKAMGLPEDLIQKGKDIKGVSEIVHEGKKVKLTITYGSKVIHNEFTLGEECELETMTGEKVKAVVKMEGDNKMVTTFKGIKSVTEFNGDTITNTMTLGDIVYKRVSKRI
# Description: as §1
# [3] = molecular target: Fatty acid-binding protein, liver [T94A] (Homo sapiens, UniProt P07148, T94A)
# Sequence of Fatty acid-binding protein, liver [T94A] (P07148 whole entry T94A): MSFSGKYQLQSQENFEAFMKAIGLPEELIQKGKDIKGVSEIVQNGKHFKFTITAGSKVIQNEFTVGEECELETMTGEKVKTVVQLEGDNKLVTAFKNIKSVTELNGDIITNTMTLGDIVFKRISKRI
# Description: as §1
Ki [1] [nM],Ki [2] [nM],Ki [3] [nM],Structure (SMILES)
35,37,38,"CC(C)CCC[C@H](C)CCC[C@H](C)CCC[C@@H](C)CC(=O)O [3,7,11,15-tetramethylhexadecanoic acid]"
15,100,15,CC(C)OC(=O)C(C)(C)Oc1ccc(C(=O)c2ccc(Cl)cc2)cc1 [Finofibrate]
250,5800,310,CC(C)(Oc1ccc(C(=O)c2ccc(Cl)cc2)cc1)C(=O)O [alpha-1081]
